Laboratory results reported in article PMC7515946, “Targeting of Perforin Inhibitor into the Brain Parenchyma Via a Prodrug Approach Can Decrease Oxidative Stress and Neuroinflammation and Improve Cell Survival” (Molecular Neurobiology, 2020).
“Also recorded” adds a separate entry of the source. Read-outs that look alike come from different tables or passages of the source.

Columns and labels:
caspase-3/-7 = experiment: Caspase-3/-7 in brain of LPS-induced neuroinflammation mice; assay type: in vivo, mouse; settings: for Brain caspase-3/-7 amounts, preventative treatment: 30 μmol/kg for 4 days together with LPS 250 μg/kg for 3 days; for Brain caspase-3/-7 amounts, preventative treatment / Brain caspase-3/-7 amounts, curative treatment: relative to control; for Brain caspase-3/-7 amounts, curative treatment: 30 μmol/kg on days 3 and 4, LPS 250 μg/kg for 3 days
Protocol: Adult male C57BL/6JOlaHsd mice (Jackson Laboratories, Bar Harbor, ME, USA) were supplied by Envigo (Venray, Netherlands). Mice were housed in stainless steel cages on a 12-h light (07:00–19:00) and 12-h dark (19:00–07:00) cycle at an ambient temperature of 22 ± 1 °C with a relative humidity of 50–60%. All experiments were carried out during the light phase. Tap water and food pellets (Lactamin R36; Lactamin AB, Södertälje, Sweden) were available ad libitum. Neuroinflammation was induced by the treatment with LPS 250 μg/kg i.p once per day for 3 consequent days followed by decapitation on the 4th day. The animals were allocated to one of four treatment groups (n = 6 per group): (1) LPS-treated mice, (2) mice treated with LPS and the studied compound (30 μmol/kg; i.v.) for 3 days and 120 min before the decapitation on the 4th day (preventative efficacy), (3) mice treated with LPS for 3 days and with the studied compound (30 μmol/kg; i.v.) only for the last 2 days, and (4) control mice treated with 0.9% NaCl solution i.p. once per day for 3 days. After decapitation, mouse blood and brain samples were collected. […] The plasma layer was centrifuged again at 12,000 × g to remove the platelets. Plasma was stored at − 80 °C until analysis. The brains were snap-frozen in liquid nitrogen and stored at − 80 °C until analysis.
The effects of the compounds on the enzyme activity of caspase-3 and caspase-7 were evaluated from the snap-frozen mouse brain. Pieces of tissues (n = 3) were homogenized in 50 mM Tris–HCl (pH 7.4) 1:10 (w/v) with a bead mill homogenizer. […] The enzyme activity was measured with an Apo-ONE Homogenous Caspase-3/7 Assay kit (Promega Corporation, Madison, WI, USA) according to the manufacturer’s instruction. The assay was performed on 96-well plates, each sample having 3 replicates. Each of the sample wells contained 100 μL of the previously collected supernatant and 100 μL of the prepared Apo-ONE reagent. The blank measurement was carried out with the homogenization buffer and Apo-ONE reagent. Once all the samples and reagents were pipetted in the wells, the plate was carefully shaken for 30 s and left for incubation in dark at room temperature. The fluorescence was measured after the incubation with an EnVision 2104 Multilabel Reader (PerkinElmer, Waltham, MA, USA), with λex 499 nm and λem 521 nm. The measurement was repeated on multiple time points between 0.5 and 24 h.

primary astrocytes = experiment: Ability to affect cell growth of primary astrocytes (resazurin); assay type: cell-based; settings: 72 h
[1] = Transporter-mediated cellular uptake into primary astrocytes; assay type: in vitro ADME; settings: C57BL/6JOlaHsd, mouse
Protocol: (§1) For the cell uptake experiments, the astrocytes were seeded on 24-well plates with a density of 10 × 10^4 cells/well 3 days before the experiments. […]; Agilent Technologies, Santa Clara, CA). […] The concentrations of each compound in cell lysates were calculated from the standard curve that was prepared by spiking known amounts of compounds to ACN including the selected internal standard and normalized with protein concentration. The protein concentrations on each plate were determined as a mean of three samples by Bio-Rad Protein Assay, based on the Bradford dye-binding method, using bovine serum albumin (BSA) as a standard protein and measuring the absorbance (595 nm) by a multiplate reader (EnVision, Perkin Elmer, Inc., Waltham, MA, USA).

mouse primary astrocytes = experiment: as above; assay type: in vitro ADME; settings: for Vmax of cellular uptake (maximum transport capacity): 1–200 μM, 30 min
Protocol: as §1

[2] = biological target: T1, butyrylcholinesterase (BChE) (Mus musculus, UniProt Q03311); assay type: biochemical; settings: mouse brain S9 fraction, butyrylthiocholine 1 mM, 30 min endpoint
T1 construct: mouse brain S9 fraction was prepared by homogenizing freshly collected mouse brain; from tissue; host or cells: mouse brain S9 fraction (9000 x g supernatant)
Protocol: Briefly, mouse brain S9 fraction was prepared by homogenizing freshly collected mouse brain with 50 mM Tris-buffered saline (TBS) (pH 7.4) (1:4 w/v), centrifuging the homogenate at 9000 × g for 20 min at 4 °C and collecting the supernatant. The supernatant was then diluted 1:10 with phosphate buffer (100 mM; pH 7.0) and mixed with Ellman’s reagent (DTNB; 1 mM) and studied compounds in DMSO (DMSO concentration was less than 0.5%) on a 96-well plate as 3 parallel assays.

[3] = tested on: MCF-7 human breast adenocarcinoma cells; experiment: Cell viability of MCF-7 cells with cisplatin co-treatment (resazurin); assay type: cell-based; settings: 10–400 μM together with 100 μM cisplatin, 72 h
[4] = Intracellular unbound concentrations in astrocytes (RED dialysis, Kp,uu,cell); assay type: in vitro ADME; settings: mouse; for fraction unbound at 4 h, 100 μM: astrocyte homogenate, RED, 37 °C, read-out: fu,cell (unbound fraction)
Protocol: The non-specific binding of compounds (100 μM) was determined in astrocyte homogenate by using the Rapid Equilibrium Dialysis (RED) device (Thermo Fisher Scientific, Inc., Waltham, MA, USA). Briefly, the astrocyte cell suspension (10 × 10^6 cells/mL) was homogenized with HBSS by the SoniPerp 150 Plus disintegrator (MSE Ltd., London, UK) (2 s × 3). The studied compound was mixed with 100 μL of cell homogenate and added to the reaction chamber. A 350-μL HBSS buffer was added to the buffer chamber. The dialysis plate was incubated at 37 °C for 4 h with shaking. Fifty microliters of samples were taken from the reaction and buffer chambers and equal size of the buffer or blank homogenate were added, respectively, to yield identical matrices. The proteins were precipitated by adding 100 μL of ice-cold ACN (including the selected internal standard; see above), and the supernatants were collected for LC-MS analysis (see above) after centrifugation at 12,000 × g for 10 min. The unbound drug fraction (fu,cell) was calculated by dividing concentration in the buffer chamber by concentration in the reaction chamber and taking into account the effect of homogenate dilution factor (D = 45 for 10 × 10^6 cells/mL cell suspension according to their weight of the cells) as described earlier.
The compound concentration ratios in astrocytes (Kp) was determined at 0.01–1.0 μM concentrations by comparing the cellular uptake amount (nmol) in cell lysates (0.1 M NaOH) per astrocyte cell volume (0.05810^−15 L/cell for 10 × 10^4 cells/well) to the concentrations (nM) detected from the surrounding buffer (HBSS) collected before cell lysing as described previously. The unbound drug concentration ratio (Kp,uu) was then calculated by multiplying the drug concentration ratio (Kp) by unbound drug fraction (fu,cell).

[5] = 1–200 μM, 30 min, read-out: Km of cellular uptake

T1 sequence (Q03311 30-603): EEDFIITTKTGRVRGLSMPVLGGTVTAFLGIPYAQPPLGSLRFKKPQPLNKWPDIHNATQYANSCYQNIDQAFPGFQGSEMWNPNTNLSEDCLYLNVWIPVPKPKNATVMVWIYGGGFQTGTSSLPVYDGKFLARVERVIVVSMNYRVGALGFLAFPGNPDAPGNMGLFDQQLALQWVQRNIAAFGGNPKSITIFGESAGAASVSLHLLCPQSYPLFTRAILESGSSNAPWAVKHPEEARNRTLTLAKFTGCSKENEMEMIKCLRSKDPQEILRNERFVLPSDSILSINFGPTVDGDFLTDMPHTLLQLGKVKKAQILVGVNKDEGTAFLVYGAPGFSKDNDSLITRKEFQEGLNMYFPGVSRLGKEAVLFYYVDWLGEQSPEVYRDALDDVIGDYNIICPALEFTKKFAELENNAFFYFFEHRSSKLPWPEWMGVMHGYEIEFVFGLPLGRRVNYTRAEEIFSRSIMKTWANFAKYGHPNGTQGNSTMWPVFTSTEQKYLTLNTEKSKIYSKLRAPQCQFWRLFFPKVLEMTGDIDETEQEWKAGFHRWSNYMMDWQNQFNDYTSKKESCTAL

SMILES: O=C1OCc2cc(-c3ccc(-c4ccc(CO)cc4)s3)ccc21 [PFI]
- Brain caspase-3/-7 amounts, preventative treatment (caspase-3/-7): 156%
- Brain caspase-3/-7 amounts, curative treatment (caspase-3/-7): 105%
- Inhibition of astrocyte cell growth (primary astrocytes; concentrations over 100 μM, vs untreated control): 38–68%
- Km at 30 min [1, 5]: 98 µM
- Km at 30 min ([1]; read-out: Km of cellular uptake, Eadie-Hofstee, first transport mechanism): 8.3 µM
- Km at 30 min ([1]; read-out: Km of cellular uptake, Eadie-Hofstee, second transport mechanism): 680 µM
- Vmax of cellular uptake (maximum transport capacity) (mouse primary astrocytes): 1.4 ± 0.4 nmol/min/mg protein
- Vmax of cellular uptake, Eadie-Hofstee, first transport mechanism (mouse primary astrocytes; mechanism with Km 8.3 μM): 0.036 ± 0.007 nmol/min/mg protein
- Vmax of cellular uptake, Eadie-Hofstee, second transport mechanism (mouse primary astrocytes; mechanism with Km 680 μM): 2.53 ± 0.17 nmol/min/mg protein
- BChE IC50 value [2]: No inhibition
- Reversal of cisplatin-induced effects on MCF-7 cell viability [3]: not able to revert the cisplatin-induced effects
- fraction unbound at 4 h, 100 μM [4]: 0.0053 ± 0.0001

SMILES: N[C@H](Cc1cccc(C(=O)OCc2ccc(-c3ccc(-c4ccc5c(c4)COC5=O)s3)cc2)c1)C(=O)O [PFI-PD]
- Brain caspase-3/-7 amounts, preventative treatment (caspase-3/-7): 68%
- Brain caspase-3/-7 amounts, curative treatment (caspase-3/-7): 63%
- Brain caspase-3/-7 levels after prodrug treatment (caspase-3/-7; LPS-induced mice, LPS level given as 117%): 72–74%
- Reduction of brain caspase-3/-7 levels (caspase-3/-7; as stated in the discussion (from 117 to 72–74%)): over 40%
- Increase of astrocyte cell growth (primary astrocytes; 5–100 μM, vs control cells): 35–87%
- Effect on astrocyte cell growth / viability (primary astrocytes; 5–400 μM): did not exert any inhibitory effects; also recorded: did not affect the cell viability
- Km at 30 min [1, 5]: 720 µM
- Vmax of cellular uptake (maximum transport capacity) (mouse primary astrocytes): 54 ± 7 nmol/min/mg protein
- BChE IC50 value [2]: No inhibition
- Reversal of cisplatin-induced effects on MCF-7 cell viability [3]: able to revert the cisplatin-induced effects
- Kp uu at 50 nM ([4]; primary astrocytes, astrocytes, 50 nM concentration, read-out: Kp,uu,cell (unbound drug accumulation ratio)): 2.01 ± 0.91
- fraction unbound at 4 h, 100 μM [4]: 7e-05 ± 4e-05
